Reference: patent US5340818A, “Methods and compositions for inhibiting tumor cell growth” (priority 1993, dated 1994)
Several values for one entry are separate records, joined by “and”; a condition that tells them apart may be missing. Equal entries are not always repeated. Where two headings read alike, the source gives them in different places.

Assays:
tumors = conditions: literature; cited from earlier work
L1210 leukemia = L1210 leukemia survival time evaluation in BDF1 mice; conditions: for Day 6 AWC / MST / N/T (nine day survivors/total mice) / Survival Time, individual mice / % ILS (increase in lifespan): day 1, QDX4 ip; for % ILS (increase in lifespan): 25% or greater indicates activity; for antileukemic activity, in words: L1210, BDF mice, low doses, ip
[1] = system: protein synthesis in HL-60 cells; assay: Inhibition of [2,3,4,5-3H]L-Leu incorporation into protein of HL-60 cells; type: cell-based, human; conditions: for inhibition at 30 µg/mL: Homo sapiens
Protocol: (§1) For the precursor incorporation studies, each compound (in 0.3% dimethylsulfoxide) was preincubated with HL-60 cells (a human promyelocytic leukemic cell line) 2.2×10^6 /ml, for 15 min prior to the addition of the labeled precursor (obtained from ICN Radiochemicals, Irvine, Calif.) and then incubated for 30 min. The precursors used for incorporation into DNA, RNA and protein were [^3 H-methyl]dThd (1 μCi, 0.15 nmole/ml), [5-^3 H]Cyd (5 μCi, 0.23 nmol/ml), and [2,3,4,5-^3 H]L-Leu (0.5 μCi, 0.004 nmol/ml), respectively. Incorporation of radioactivity in the absence of a plant compound and in the presence of dimethylsulfoxide was used as a control. The control values for incorporation into DNA, RNA and protein were 8,500, 5,600 and 1,700 cpm/10^6 cells, respectively. The incubation conditions and the procedures for isolating DNA, RNA and protein fractions have been previously described (Chou, T. -C., et al., Cancer Res., 43:3074-3079 (1983)) .
(§2) HL-60 cells were incubated with [5-^3 H]Cyd or [2,3,4,5-^3 H]L-Leu in the presence and absence of alkaloids (0.03 mg/ml) in order to find the effects of the alkaloid on the incorporation of labeled precursors into RNA or protein. […] Over 90% of RNA and protein biosynthesis were inhibited by compounds 11, 16, 17, 22, 28, 29and 30 (Table 1). […] In most cases, the amount required to inhibit precursor incorporation into DNA was less than that to inhibit precursor incorporation into RNA or protein (i.e. DNA synthesis is inhibited most potently).

HL-60 cells = assay: HL-60 cell growth inhibition, 72 h; type: cell-based, human; conditions: HL-60, 72 h; for IC50: Homo sapiens, read-out: Cell Growth Inhibition, IC50
Protocol: For growth inhibition studies, HL-60 cells (1.5×10^5 /ml) were grown in RPMI 1640 media (GIBCO, Grand Island, N.Y.) at 37° C. in humidified 5% CO2 for 72 h. Viable cells were determined using trypan blue exclusion and counted in a hemocytometer. The fractional inhibition for each compound concentration (0.0025-0.05 mg/ml in 0.1% dimethylsulfoxide) was analyzed with the median-effect plot using a computer program (Chou, T. -C and P. Talalay, Adv. Enzyme Regul., 22:27-55 (1984); Chou, J. and T. -C. thou, Dose-Effect analysis with microcomputers: Quantitation of ED50, LD50, synergism, antagonism, low-dose risk, receptor ligand binding and enzyme kinetics. A computer software disk for Apple II series or IBM-PC and manual. Elsevier Science Publishers, Elsevier-BioSoft, Cambridge, United Kingdom (1986)). The median-effect concentration (IC50) was determined automatically for three to five dose-effect levels. Cell growth in the absence of plant compound and in the presence of dimethylsulfoxide was used as a control. Dimethylsulfoxide alone inhibited cell growth 3.9%±1.5% during the 72 h incubation period. Those data with negative values represent activations.

[2] = system: RNA synthesis in HL-60 cells; assay: Inhibition of [5-3H]Cyd incorporation into RNA of HL-60 cells; type: cell-based, human; conditions: for inhibition at 30 µg/mL: Homo sapiens, HL-60, 0.5 h
Protocol: as §1, §2

[3] = system: DNA synthesis in HL-60 cells; assay: Inhibition of [3H-methyl]dThd incorporation into DNA of HL-60 cells; type: cell-based, human; conditions: for inhibition at 30 µg/mL: Homo sapiens, HL-60, at 0.03 mg/mL, read-out: % Inhibition of Precursor Incorporation, DNA
Protocol: as §1, with “control.” for “control. The control values for incorporation into DNA, RNA and protein were 8,500, 5,600 and 1,700 cpm/10^6 cells, respectively. The incubation conditions and the procedures for isolating DNA, RNA and protein fractions have been previously described (Chou, T. -C., et al., Cancer Res., 43:3074-3079 (1983)) .”
Human promyelocytic cells (HL-60) were incubated with [^3 H-methyl]dTHDin the presence and absence of a plant alkaloid.

L1210/Dx cells = assay: Cross-resistance studies: growth inhibition of doxorubicin-resistant L1210/Dx cells; type: cell-based; conditions: for (IC50) 0/(IC50) Dx: L1210/0 and L1210/Dx; for IC50: Mus musculus, L1210/Dx (doxorubicin resistant)
L1210/0 cells = assay: Cross-resistance studies: growth inhibition of doxorubicin-sensitive L1210/0 cells; type: cell-based; conditions: L1210/0 (doxorubicin sensitive)
[4] = HL-60, at 0.03 mg/mL, read-out: % Inhibition of Precursor Incorporation, Protein
[5] = at 0.03 mg/mL, read-out: % Inhibition of Precursor Incorporation, RNA

| Compound | Day 6 AWC (L1210 leukemia; 6.25 mg/kg) | MST (L1210 leukemia; 6.25 mg/kg) | N/T (nine day survivors/total mice) (L1210 leukemia; 6.25 mg/kg) | Survival Time, individual mice (L1210 leukemia; 6.25 mg/kg) | % ILS (increase in lifespan) (L1210 leukemia; 6.25 mg/kg) | antileukemic activity, in words (L1210 leukemia) | inhibition at 30 µg/mL [1, 4] | cell growth inhibition, in words (HL-60 cells) | IC50 (HL-60 cells) | inhibition at 30 µg/mL [2, 5] | inhibition at 30 µg/mL [3] | also measured |
| --- | --- | --- | --- | --- | --- | --- | --- | --- | --- | --- | --- | --- |
| CN(C)CCOc1cc2c(c3c1c(=O)c1ccccc1n3C)C=CC(C)(C)O2 [Compound 2, O-(dimethylaminoethyl)noracronycine] | – | – | – | – | – | – | – | – | – | – | – | antitumor activity, in words (tumors): significant antitumor activity |
| COc1cc(O)c2c(=O)c3cccc(OC)c3n(C)c2c1OC [Compound 17, 5-O-Methyl-citrusinine-I] | +1.8 g | 7.0 | 0/2 | 7 | 0% | not active | 93% | significant activity against leukemic cells in vitro | 2.7 µg/mL and 8.6 µM | 96.4% | 93.4% | Day 6 AWC (L1210 leukemia; 12.5 mg/kg): +1.5 g; MST (L1210 leukemia; 12.5 mg/kg): 7.0; N/T (nine day survivors/total mice) (L1210 leukemia; 12.5 mg/kg): 0/2; Survival Time, individual mice (L1210 leukemia; 12.5 mg/kg): 7; % ILS (increase in lifespan) (L1210 leukemia; 12.5 mg/kg): 0% |
| CC1(C)C=Cc2c(cc(O)c3c(=O)c4cccc(O)c4[nH]c23)O1 [Compound 34, Atalaphyllidine] | +1.7 g | 7.0 | 0/2 | 7 | 0% | evidence of antileukemic activity | – | comparable activity | 1.3 µg/mL and 4.2 µM | – | 78.9% | Day 6 AWC (L1210 leukemia; 25 mg/kg): +1.5 g; MST (L1210 leukemia; 25 mg/kg): 7.5; N/T (nine day survivors/total mice) (L1210 leukemia; 25 mg/kg): 0/2; % ILS (increase in lifespan) (L1210 leukemia; 25 mg/kg): 7%; Survival Time, individual mice (L1210 leukemia; 25 mg/kg, listed as SK 32090): 7 and 8; inhibition at 30 µg/mL ([1]; HL-60, read-out: % Inhibition of Precursor Incorporation, Protein, at 0.03 mg/mL): 82.9%; inhibition at 30 µg/mL ([2]; read-out: % Inhibition of Precursor Incorporation, RNA, at 0.03 mg/mL): 94.8% |
| CC(C)=CCc1c2c(c3[nH]c4ccccc4c(=O)c3c1O)C=CC(C)(C)O2 [Compound 36, Severifoline] | – | – | – | – | – | – | – | – | > 40 µg/mL and > 111 µM | – | 20% | antitumor activity, in words (tumors): no antitumor activity |
| Cn1c2c(O)cccc2c(=O)c2c(O)cc3c(c21)C=CC(C)(C)O3 [Compound 37, 11-Hydroxy-noracronycine] | +2.0 g | 7.0 | 0/2 | 7 | 0% | not active | 95.3% | comparable activity | 2.3 µg/mL and 7.1 µM | 96.6% | 98.6% | Day 6 AWC (L1210 leukemia; 25 mg/kg): +1.8 g; MST (L1210 leukemia; 25 mg/kg): 7.0; N/T (nine day survivors/total mice) (L1210 leukemia; 25 mg/kg): 0/2; Survival Time, individual mice (L1210 leukemia; 25 mg/kg): 7; % ILS (increase in lifespan) (L1210 leukemia; 25 mg/kg): 0% |
| C=C(C)C1CCC2(C)CC1c1c(cc3c(c1O)c(=O)c1cccc(O)c1n3C)O2 (centres unmarked) [Compound 50, Cycloglyco-foline] | – | – | – | – | – | – | 92.1% | better activity than that of acronycine | 5.8 µg/mL and 14.8 µM | 55.7% | 98.7% | Day 6 AWC (L1210 leukemia; 12.5 mg/kg): +1.8 g; MST (L1210 leukemia; 12.5 mg/kg): 8.5; N/T (nine day survivors/total mice) (L1210 leukemia; 12.5 mg/kg): 0/2; % ILS (increase in lifespan) (L1210 leukemia; 12.5 mg/kg): 21%; Survival Time, individual mice (L1210 leukemia; 12.5 mg/kg, listed as Sk 32091): 8 and 9; inhibition of protein biosynthesis, in words ([1]; HL-60, 0.03 mg/ml): The same results were obtained; inhibition of RNA biosynthesis, in words ([2]; HL-60, 0.03 mg/ml): The same results were obtained; inhibition of DNA synthesis, in words ([3]; HL-60, 0.03 mg/ml): inhibited DNA synthesis significantly |
| COc1cccc2c1C(=O)c1c(O)c3c(c(O)c1C2=O)C[C@@](O)(C(=O)CO)C[C@@H]3O[C@H]1C[C@H](N)[C@H](O)[C@H](C)O1 [Doxorubicin] | – | – | – | – | – | – | – | – | – | – | – | (IC50) 0/(IC50) Dx (L1210/Dx cells): 26.1; IC50 (L1210/Dx cells): 730 nM; IC50 (L1210/0 cells): 28 nM |
| COc1cc(NS(C)(=O)=O)ccc1Nc1c2ccccc2nc2ccccc12 [m-AMSA] | – | – | – | – | – | – | – | – | – | – | – | (IC50) 0/(IC50) Dx (L1210/Dx cells): 61-610; IC50 (L1210/Dx cells): 61 nM; IC50 (L1210/0 cells): 0.1 to 1 nM |
